Laboratory results from patent US11466005B2, “Tricyclic compounds” (JACOBIO PHARMACEUTICALS CO., LTD., priority 2018, dated 2022).

Columns and labels:
BRD4(BD1) = BRD4(BD1) (Homo sapiens (Human), UniProt O60885); assay: BRD4(BD1) biochemical binding assay (HTRF); details: biotinylated H4 derived acetylated peptide
Experimental: 1. BRD4(BD1) Binding Assays
The BRD4(BD1) biochemical binding assay was performed by Sundia MediTech Co. Ltd. in 384-well white plate (OptiPlate-384, PerkinElmer) using HTRF technology.
Briefly, 20 nL of compounds were transferred to the 384-well plate by Echo® 550 liquid handler (Labcyte, USA), then 5 μL of BRD4(BD1) (Reaction Biology Company, RD-11-157) solution or the assay buffer was added to each well. After incubating at RT for 15 min, 5 μL of the biotinylated H4 derived acetylated peptide (synthesized by GL Biochem (Shanghai) Ltd) and 10 μL of the detection solution (Cisbio Assay) were added to each well. After incubating for 1 h at RT, the HTRF signal was measure at 615 nm and 665 nm using the EnVision Multilabel Plate Reader (PerkinElmer, USA). Results were analyzed with a two-wavelength signal ratio: intensity (665 nm)/intensity (615 nm). The inhibition percentage in the presence of the compound was calculated according to the equation, Percent inhibition=(Max−Signal)/(Max−Min)*100%. Fit the data in GraphPad Prism V5.0 software (San Diego, Calif.) to obtain IC50 values with nonlinear regression analysis using equation, Y=Bottom+(Top−Bottom)/(1+10^((Log IC50−X)×HillSlope), where Y stands for inhibition percentage and X stands for compound concentration.

MV-4-11 cells = assay: MV-4-11 cell proliferation assay (MTS); format: cell-based; details: Homo sapiens, MV4-11, 72 h, 3 days culture
Experimental: 2. Cell Proliferation Assay
MV-4-11 cell proliferation analysis was conducted by the MIS (3-(4,5-dimethylthiazol-2-yl)-5-(3-carboxymethoxyphenyl)-2-(4-sulfophenyl)-2H-tetrazolium, inner salt) assay. Briefly, MV-4-11 cells will be cultured in IMDM (Iscove's Modified Dubecco's Medium) medium supplemented with 10% (v/v) FBS (fetal bovine serum), under the temperature of 37° C., […] and 95% humidity. The cells will be harvested respectively during the logarithmic growth period and counted with hemocytometer. The cell viability is over […] by trypan blue exclusion. Adjust MV-4-11 cells concentrations to 1.2×10^5 cells/mL with complete medium. Add 100 μL cell suspensions to 96-well plates (triplicates for each cell concentration), the final cell densities are 1.2×10^4 cells/well. The next day, dissolve the test compound with DMSO as stock solution. Dispense 5 μL of the stock solution in 1 mL culture media and add 25 μL drug media into 96-well plates. After serially diluting with culture media, the final concentration of the compound will be 0, 0.03, 0.1, 0.3, 1, 3, 10, 30, 100 nM. The plates will be cultured for 3 days, then measured by means of MTS assay. Add PMS (phenazinium methosulfate) solution to MITS solution (1:20) immediately before addition to the culture plate containing cells. Pipet 20 μL of the combined MTS/PMS Solution into each well of the 96 well assay plate containing 100 μL of cells in culture medium. Incubate the plate for 1-4 hours at 37° C. in a humidified, 5% CO2 atmosphere. Record the absorbance at 490 nm using a microplate spectrophotometer (Envision®, PeikinElmer). Fit the data using GraphPad 5.0 and obtain IC50 values.

SMILES	IC50 (BRD4(BD1)) [nM]	IC50 (MV-4-11 cells) [nM]
Cc1nnn(C)c1-c1cnc2c3[nH]nc(C(C)(C)O)c3n([C@H](c3ncccc3F)C3CCOCC3)c2c1 [Compound 13, (S)-2-(6-(1,4-Dimethyl-1H-1,2,3-triazol-5-yl)-4-((3-fluoropyridin-2-yl)(tetrahydro-2H-pyran-4-yl)methyl)-1,4-dihydropyrazolo[3′,4′:4,5]pyrrolo[3,2-b]pyridin-3-yl)propan-2-ol]	0.4	1.15
COc1cccnc1C(C1CCOCC1)n1c2cc(-c3c(C)nnn3C)cnc2c2c1c(C(C)(C)O)nn2C (stereo not shown) [Compound 26, 2-(6-(1,4-Dimethyl-1H-1,2,3-triazol-5-yl)-4-((3-methoxypyridin-2-yl)(tetrahydro-2H-pyran-4-yl)methyl)-1-methyl-1,4-dihydropyrazolo[3′,4′:4,5]pyrrolo[3,2-b]pyridin-3-yl)propan-2-ol]	0.68	0.91
CC(=O)Nc1nn(C)c2c3ncc(-c4c(C)nnn4C)cc3n([C@H](c3ccccc3)C3CCOCC3)c12 [Compound 29, (S)—N-(6-(1,4-dimethyl-1H-1,2,3-triazol-5-yl)-1-methyl-4-(phenyl(tetrahydro-2H-pyran-4-yl)methyl)-1,4-dihydropyrazolo[3′,4′:4,5]pyrrolo[3,2-b]pyridin-3-yl)acetamide]	1.9	24.7
CNC(=O)c1nn(C)c2c3ncc(-c4c(C)nnn4C)cc3n(C(c3ccccc3)C3CCOCC3)c12 (stereo not shown) [Compound 17, 6-(1,4-dimethyl-1H-1,2,3-triazol-5-yl)-N,1-dimethyl-4-(phenyl(tetrahydro-2H-pyran-4-yl)methyl)-1,4-dihydropyrazolo[3′,4′:4,5]pyrrolo[3,2-b]pyridine-3-carboxamide]	0.55	12.7
Cc1nc(C(C2CCOCC2)n2c3cc(-c4c(C)nnn4C)cnc3c3c2c(C(C)(C)O)nn3C)co1 (stereo not shown) [Compound 12, 2-(6-(1,4-Dimethyl-1H-1,2,3-triazol-5-yl)-1-methyl-4-((2-methyloxazol-4-yl)(tetrahydro-2H-pyran-4-yl)methyl)-1,4-dihydropyrazolo[3′,4′:4,5]pyrrolo[3,2-b]pyridin-3-yl)propan-2-ol]	1.6	10.5
CCC(O)(CC)c1nn(C)c2c3ncc(-c4c(C)nnn4C)cc3n(C(c3ccccc3)C3CCOCC3)c12 (stereo not shown) [Compound 19, 3-(6-(1,4-Dimethyl-1H-1,2,3-triazol-5-yl)-1-methyl-4-(phenyl(tetrahydro-2H-pyran-4-yl)methyl)-1,4-dihydropyrazolo[3′,4′:4,5]pyrrolo[3,2-b]pyridin-3-yl)pentan-3-ol]	0.79	7.17
Cc1cccnc1C(C1CCOCC1)n1c2cc(-c3c(C)nnn3C)cnc2c2c1c(C(C)(C)O)nn2C (stereo not shown) [Compound 5, 2-(6-(1,4-Dimethyl-1H-1,2,3-triazol-5-yl)-1-methyl-4-((3-methylpyridin-2-yl)(tetrahydro-2H-pyran-4-yl)methyl)-1,4-dihydropyrazolo[3′,4′:4,5]pyrrolo[3,2-b]pyridin-3-yl)propan-2-ol]	0.59	1.24
Cc1cccnc1C(C1CCOCC1)n1c2cc(-c3c(C)noc3C)cnc2c2c1c(C(C)(C)O)nn2C (stereo not shown) [Compound 8, 2-(6-(3,5-dimethylisoxazol-4-yl)-1-methyl-4-((3-methylpyridin-2-yl)(tetrahydro-2H-pyran-4-yl)methyl)-1,4-dihydropyrazolo[3′,4′:4,5]pyrrolo[3,2-b]pyridin-3-yl)propan-2-ol]	12	31.6
Cc1noc(C)c1-c1cnc2c3c(c(C(C)(C)O)nn3C)n([C@H](c3ccccc3)C3CCOCC3)c2c1 [Compound 1, (S)-2-(6-(3,5-dimethylisoxazol-4-yl)-1-methyl-4-(phenyl(tetrahydro-2H-pyran-4-yl)methyl)-1,4-dihydropyrazolo[3′,4′:4,5]pyrrolo[3,2-b]pyridin-3-yl)propan-2-ol]	0.48	0.89
Cc1nnn(C)c1-c1cnc2c3c(c(C(C)(C)O)nn3C)n(C(CCC(F)(F)F)c3ncccc3F)c2c1 (stereo not shown) [Compound 4, 2-(6-(1,4-Dimethyl-1H-1,2,3-triazol-5-yl)-1-methyl-4-(4,4,4-trifluoro-1-(3-fluoropyridin-2-yl)butyl)-1,4-dihydropyrazolo[3′,4′:4,5]pyrrolo[3,2-b]pyridin-3-yl)propan-2-ol]	0.57	3.13
Cc1nnn(C)c1-c1cnc2c3c(c(C(C)(C)O)nn3C)n(C(CCC(F)(F)F)c3cocn3)c2c1 (stereo not shown) [Compound 10, 2-(6-(1,4-dimethyl-1H-1,2,3-triazol-5-yl)-1-methyl-4-(4,4,4-trifluoro-1-(oxazol-4-yl)butyl)-1,4-dihydropyrazolo[3′,4′:4,5]pyrrolo[3,2-b]pyridin-3-yl)propan-2-ol]	2.2	34
